According to ChEMBL document CHEMBL5465560, “Selectivity Literature for EUbOPEN Chemogenomic Library” (2024):

Legend:
[1] = target: T1, Mitogen-activated protein kinase kinase kinase 6 (Homo sapiens) (UniProt O95382); assay: Selectivity interaction (KinomeScan (DiscoverX)) EUB0000595a MAP3K6; conditions: at 10 µM
T1 sequence (whole entry): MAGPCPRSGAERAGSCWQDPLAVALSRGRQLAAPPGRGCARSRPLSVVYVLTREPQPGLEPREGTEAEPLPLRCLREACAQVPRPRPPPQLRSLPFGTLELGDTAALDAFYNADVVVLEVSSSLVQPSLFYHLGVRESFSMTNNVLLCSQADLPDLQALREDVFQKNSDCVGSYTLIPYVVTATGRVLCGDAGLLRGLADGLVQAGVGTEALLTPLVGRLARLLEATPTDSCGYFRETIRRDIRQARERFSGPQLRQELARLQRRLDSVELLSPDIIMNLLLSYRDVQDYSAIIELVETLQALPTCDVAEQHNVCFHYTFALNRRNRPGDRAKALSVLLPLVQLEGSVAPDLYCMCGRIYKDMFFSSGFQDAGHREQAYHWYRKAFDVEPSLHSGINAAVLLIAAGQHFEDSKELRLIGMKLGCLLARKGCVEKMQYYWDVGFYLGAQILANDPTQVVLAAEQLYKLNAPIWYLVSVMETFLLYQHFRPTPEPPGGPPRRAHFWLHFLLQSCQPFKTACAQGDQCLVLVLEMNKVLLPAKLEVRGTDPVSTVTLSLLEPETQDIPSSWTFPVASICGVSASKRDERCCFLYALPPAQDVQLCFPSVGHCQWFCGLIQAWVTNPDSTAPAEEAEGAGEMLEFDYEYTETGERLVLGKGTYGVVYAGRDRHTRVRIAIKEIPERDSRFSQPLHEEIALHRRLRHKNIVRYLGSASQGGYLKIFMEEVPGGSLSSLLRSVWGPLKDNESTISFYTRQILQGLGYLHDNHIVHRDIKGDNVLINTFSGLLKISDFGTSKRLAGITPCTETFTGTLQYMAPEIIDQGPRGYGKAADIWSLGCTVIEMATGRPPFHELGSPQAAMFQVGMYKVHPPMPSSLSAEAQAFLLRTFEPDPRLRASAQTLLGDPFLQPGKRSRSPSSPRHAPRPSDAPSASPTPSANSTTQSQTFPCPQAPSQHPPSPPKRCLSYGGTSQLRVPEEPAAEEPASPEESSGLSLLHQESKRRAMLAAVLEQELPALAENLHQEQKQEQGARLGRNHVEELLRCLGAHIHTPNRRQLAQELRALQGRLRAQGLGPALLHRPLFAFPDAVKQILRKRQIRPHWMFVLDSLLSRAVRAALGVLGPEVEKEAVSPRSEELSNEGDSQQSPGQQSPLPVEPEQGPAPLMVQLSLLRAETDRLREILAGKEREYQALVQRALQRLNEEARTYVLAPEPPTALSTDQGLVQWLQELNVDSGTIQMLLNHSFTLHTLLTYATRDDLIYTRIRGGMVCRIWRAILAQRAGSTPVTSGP

[2] = target: Serine/threonine-protein kinase pim-1 (Homo sapiens, UniProt P11309); assay: Selectivity interaction (KinomeScan (DiscoverX)) EUB0000618a PIM1; conditions: at 10 µM
Chain of Serine/threonine-protein kinase pim-1 (P11309 whole entry, looked up): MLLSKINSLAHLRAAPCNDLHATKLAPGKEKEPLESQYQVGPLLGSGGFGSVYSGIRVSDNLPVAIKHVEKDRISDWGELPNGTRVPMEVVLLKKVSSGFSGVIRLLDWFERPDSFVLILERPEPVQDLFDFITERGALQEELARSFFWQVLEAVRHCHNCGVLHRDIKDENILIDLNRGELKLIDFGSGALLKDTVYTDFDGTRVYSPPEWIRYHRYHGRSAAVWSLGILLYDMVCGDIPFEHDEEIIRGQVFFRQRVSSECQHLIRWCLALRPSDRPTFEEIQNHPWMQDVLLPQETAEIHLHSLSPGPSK

[3] = target: T2, Serine/threonine-protein kinase Nek3 (Homo sapiens) (UniProt P51956); assay: Selectivity interaction (Upstate Kinase Profiler service (Millipore)) EUB0000056c NEK3; conditions: at 1 µM
T2 sequence (whole entry): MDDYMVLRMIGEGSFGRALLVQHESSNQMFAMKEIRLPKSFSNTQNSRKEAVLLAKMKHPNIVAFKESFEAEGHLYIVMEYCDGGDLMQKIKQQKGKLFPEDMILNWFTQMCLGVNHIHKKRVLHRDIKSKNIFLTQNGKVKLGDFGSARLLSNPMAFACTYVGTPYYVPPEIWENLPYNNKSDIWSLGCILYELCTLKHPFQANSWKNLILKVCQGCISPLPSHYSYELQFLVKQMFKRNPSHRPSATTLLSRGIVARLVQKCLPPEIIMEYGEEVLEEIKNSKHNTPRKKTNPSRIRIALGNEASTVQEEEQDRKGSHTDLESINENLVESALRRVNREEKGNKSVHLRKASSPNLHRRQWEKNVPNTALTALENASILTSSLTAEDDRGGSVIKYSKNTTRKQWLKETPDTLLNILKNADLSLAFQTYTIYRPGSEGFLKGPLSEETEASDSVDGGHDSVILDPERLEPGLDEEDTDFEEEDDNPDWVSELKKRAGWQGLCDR

[4] = target: T3, cGMP-dependent protein kinase 2 (Homo sapiens) (UniProt Q13237); assay: Selectivity interaction (KinomeScan (DiscoverX)) EUB0000695a PRKG2; conditions: at 100 nM
T3 sequence (whole entry): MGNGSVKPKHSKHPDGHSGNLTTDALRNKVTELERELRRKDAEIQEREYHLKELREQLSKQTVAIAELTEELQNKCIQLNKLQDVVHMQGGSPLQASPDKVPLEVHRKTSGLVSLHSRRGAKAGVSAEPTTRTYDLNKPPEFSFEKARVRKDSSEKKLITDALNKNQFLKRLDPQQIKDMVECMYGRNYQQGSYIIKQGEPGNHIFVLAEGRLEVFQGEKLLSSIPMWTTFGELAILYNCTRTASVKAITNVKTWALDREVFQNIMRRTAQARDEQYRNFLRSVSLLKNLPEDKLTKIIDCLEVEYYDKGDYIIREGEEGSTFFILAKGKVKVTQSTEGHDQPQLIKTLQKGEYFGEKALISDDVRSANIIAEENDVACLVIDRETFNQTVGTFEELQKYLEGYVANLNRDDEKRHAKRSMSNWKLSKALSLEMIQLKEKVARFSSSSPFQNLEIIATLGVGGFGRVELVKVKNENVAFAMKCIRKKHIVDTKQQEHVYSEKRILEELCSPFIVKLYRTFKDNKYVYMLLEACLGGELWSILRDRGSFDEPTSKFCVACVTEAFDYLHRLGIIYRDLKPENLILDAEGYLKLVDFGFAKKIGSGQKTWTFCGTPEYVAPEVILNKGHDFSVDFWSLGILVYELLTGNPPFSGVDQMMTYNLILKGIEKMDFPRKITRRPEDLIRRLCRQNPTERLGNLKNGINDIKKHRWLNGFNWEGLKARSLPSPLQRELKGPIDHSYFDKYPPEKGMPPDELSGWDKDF

[5] = tested on: ALK tyrosine kinase receptor (Homo sapiens), Q9UM73 [F1174L]; assay: (§1) Selectivity interaction (ProQinase) EUB0000171b ALK
Chain of ALK tyrosine kinase receptor (Homo sapiens), Q9UM73 [F1174L] (Q9UM73 whole entry F1174L): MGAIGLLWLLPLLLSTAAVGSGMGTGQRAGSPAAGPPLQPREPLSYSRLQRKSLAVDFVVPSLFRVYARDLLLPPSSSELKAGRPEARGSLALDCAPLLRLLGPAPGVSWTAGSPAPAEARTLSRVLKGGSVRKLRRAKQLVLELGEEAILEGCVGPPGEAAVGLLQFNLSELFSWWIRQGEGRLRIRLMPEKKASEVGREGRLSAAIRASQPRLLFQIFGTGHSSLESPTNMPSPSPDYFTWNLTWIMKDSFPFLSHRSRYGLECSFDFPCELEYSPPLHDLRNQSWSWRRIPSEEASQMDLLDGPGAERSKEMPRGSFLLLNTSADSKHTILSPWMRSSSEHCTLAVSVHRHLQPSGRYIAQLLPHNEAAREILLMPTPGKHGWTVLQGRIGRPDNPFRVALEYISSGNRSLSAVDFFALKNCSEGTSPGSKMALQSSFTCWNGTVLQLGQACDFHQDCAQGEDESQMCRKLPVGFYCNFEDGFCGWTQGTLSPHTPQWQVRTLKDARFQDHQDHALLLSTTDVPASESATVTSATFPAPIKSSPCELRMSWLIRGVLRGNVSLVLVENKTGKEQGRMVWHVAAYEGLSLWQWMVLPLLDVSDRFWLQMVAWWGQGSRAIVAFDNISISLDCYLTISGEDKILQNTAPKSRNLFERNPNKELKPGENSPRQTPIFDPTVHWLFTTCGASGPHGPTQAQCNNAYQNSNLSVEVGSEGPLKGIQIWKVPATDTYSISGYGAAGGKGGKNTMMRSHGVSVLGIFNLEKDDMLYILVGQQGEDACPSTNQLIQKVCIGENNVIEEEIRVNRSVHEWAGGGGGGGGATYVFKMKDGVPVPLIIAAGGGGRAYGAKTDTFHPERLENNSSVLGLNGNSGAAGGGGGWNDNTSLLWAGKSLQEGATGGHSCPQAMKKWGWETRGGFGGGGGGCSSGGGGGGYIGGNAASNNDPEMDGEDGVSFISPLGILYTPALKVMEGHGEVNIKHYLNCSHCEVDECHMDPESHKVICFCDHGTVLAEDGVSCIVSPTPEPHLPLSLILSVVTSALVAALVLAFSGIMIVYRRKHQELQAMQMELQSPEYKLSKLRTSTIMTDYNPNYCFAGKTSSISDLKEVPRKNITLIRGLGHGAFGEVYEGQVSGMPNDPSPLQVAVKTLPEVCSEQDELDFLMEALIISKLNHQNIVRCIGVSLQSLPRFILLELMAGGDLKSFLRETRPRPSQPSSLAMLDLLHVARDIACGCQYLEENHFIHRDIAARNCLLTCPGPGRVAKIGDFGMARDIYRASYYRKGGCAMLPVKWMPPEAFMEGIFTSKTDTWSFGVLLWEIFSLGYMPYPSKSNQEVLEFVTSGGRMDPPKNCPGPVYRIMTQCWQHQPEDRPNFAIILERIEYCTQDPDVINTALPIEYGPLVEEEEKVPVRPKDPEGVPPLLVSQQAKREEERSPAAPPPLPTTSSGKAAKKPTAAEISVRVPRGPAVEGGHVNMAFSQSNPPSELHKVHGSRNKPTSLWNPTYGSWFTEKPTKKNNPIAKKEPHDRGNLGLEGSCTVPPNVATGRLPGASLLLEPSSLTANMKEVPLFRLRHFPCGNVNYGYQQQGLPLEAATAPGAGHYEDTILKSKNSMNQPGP

[6] = tested on: ALK tyrosine kinase receptor (Homo sapiens), Q9UM73 [F1174S]; assay: as §1
Chain of ALK tyrosine kinase receptor (Homo sapiens), Q9UM73 [F1174S] (Q9UM73 whole entry F1174S): as the sequence (Q9UM73 whole entry F1174L) above, with L1174S counted along it

[7] = tested on: ALK tyrosine kinase receptor (Homo sapiens), Q9UM73 [R1275Q]; assay: as §1
Chain of ALK tyrosine kinase receptor (Homo sapiens), Q9UM73 [R1275Q] (Q9UM73 whole entry R1275Q): as the sequence (Q9UM73 whole entry F1174L) above, with L1174F, R1275Q counted along it

[8] = target: ALK tyrosine kinase receptor (Homo sapiens, UniProt Q9UM73); assay: as §1
Chain of ALK tyrosine kinase receptor (Q9UM73 19-1620 limits assumed): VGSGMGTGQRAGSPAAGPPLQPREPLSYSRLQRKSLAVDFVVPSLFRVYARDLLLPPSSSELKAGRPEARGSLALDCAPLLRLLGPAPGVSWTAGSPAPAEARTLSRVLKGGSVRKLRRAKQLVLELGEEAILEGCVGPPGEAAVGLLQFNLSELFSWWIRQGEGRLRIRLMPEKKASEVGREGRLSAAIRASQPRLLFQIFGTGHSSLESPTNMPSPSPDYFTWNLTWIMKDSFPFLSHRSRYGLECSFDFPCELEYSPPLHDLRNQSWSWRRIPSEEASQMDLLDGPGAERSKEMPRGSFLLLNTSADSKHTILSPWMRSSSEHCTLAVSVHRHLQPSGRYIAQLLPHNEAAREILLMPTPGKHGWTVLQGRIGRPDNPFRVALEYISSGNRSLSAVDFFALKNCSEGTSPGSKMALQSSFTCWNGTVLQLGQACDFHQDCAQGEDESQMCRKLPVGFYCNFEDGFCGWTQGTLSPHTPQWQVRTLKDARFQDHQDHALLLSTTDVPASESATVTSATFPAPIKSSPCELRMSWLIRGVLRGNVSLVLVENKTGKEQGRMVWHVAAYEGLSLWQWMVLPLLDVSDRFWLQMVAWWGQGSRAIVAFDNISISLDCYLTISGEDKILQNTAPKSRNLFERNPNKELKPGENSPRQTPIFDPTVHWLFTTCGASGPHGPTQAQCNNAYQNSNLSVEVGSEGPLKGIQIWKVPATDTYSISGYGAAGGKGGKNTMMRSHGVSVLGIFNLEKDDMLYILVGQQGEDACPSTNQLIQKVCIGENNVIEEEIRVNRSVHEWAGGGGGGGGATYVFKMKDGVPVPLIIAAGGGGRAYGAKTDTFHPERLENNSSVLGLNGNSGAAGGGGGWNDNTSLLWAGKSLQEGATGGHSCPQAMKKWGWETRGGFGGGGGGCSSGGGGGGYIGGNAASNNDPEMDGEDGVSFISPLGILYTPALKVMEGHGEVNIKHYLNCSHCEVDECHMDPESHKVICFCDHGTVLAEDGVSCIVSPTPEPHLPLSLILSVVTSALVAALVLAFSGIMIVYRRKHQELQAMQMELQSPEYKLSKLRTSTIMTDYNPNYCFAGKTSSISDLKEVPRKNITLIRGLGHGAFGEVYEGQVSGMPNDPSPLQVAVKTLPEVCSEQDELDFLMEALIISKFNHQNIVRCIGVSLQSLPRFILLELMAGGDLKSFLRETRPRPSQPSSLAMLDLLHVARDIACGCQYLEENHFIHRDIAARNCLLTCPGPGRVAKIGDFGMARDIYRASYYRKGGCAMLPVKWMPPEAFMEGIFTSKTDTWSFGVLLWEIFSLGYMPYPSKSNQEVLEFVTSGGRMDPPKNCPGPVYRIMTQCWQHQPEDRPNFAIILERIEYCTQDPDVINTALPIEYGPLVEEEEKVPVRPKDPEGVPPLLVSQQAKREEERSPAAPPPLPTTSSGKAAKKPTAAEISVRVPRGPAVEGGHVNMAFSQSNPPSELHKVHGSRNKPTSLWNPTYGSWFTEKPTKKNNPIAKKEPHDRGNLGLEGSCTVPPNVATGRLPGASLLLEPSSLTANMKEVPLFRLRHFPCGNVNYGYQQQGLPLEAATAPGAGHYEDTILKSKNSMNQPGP

[9] = tested on: ALK tyrosine kinase receptor (Homo sapiens), Q9UM73 [L1196M]; assay: as §1
Chain of ALK tyrosine kinase receptor (Homo sapiens), Q9UM73 [L1196M] (Q9UM73 whole entry L1196M, looked up): as the sequence (Q9UM73 whole entry F1174L) above, with L1174F, L1196M counted along it

[10] = tested on: ALK tyrosine kinase receptor (Homo sapiens), Q9UM73 [C1156Y]; assay: as §1
Chain of ALK tyrosine kinase receptor (Homo sapiens), Q9UM73 [C1156Y] (Q9UM73 whole entry C1156Y, looked up): as the sequence (Q9UM73 whole entry F1174L) above, with C1156Y, L1174F counted along it

`COCC(=O)NC/C=C/c1ccc2ncnc(Nc3ccc(Oc4ccc(C)nc4)c(C)c3)c2c1` [CP-724714] was tested, and the % of control [1] was 100%.

`O[C@H]1CC[C@H](Nc2ncc3nc(Nc4c(F)cc(F)cc4F)n([C@H]4CCOC4)c3n2)CC1` showed a % of control [2] of 100%.

`Cc1ccc(-c2ccc3c(ccc4sc5c(c43)NC[C@@H](C)NC5=O)n2)cn1` was tested, and the % of inhibition [3] was 6%.

`Cc1cc(F)c(C(=O)Nc2cccc(-c3nncn3C(C)C)n2)cc1-n1cnc(C2CC2)c1` gave a % of control [4] of 88%.

For `C=CC(=O)Nc1cccc(C(=O)Nc2ccc(Nc3cc(-c4[nH]c(SC)nc4C)ccn3)cc2)c1`, the % of control ([5]; at 1 µM) was 84%, the % of control ([5]; at 5 µM) was 74% and the % of control ([6]; at 1 µM) was 92%. It also gave a % of control ([6]; at 5 µM) of 72%, a % of control ([7]; at 1 µM) of 85% and a % of control ([7]; at 5 µM) of 73%. For the same compound, the % of control ([8]; at 1 µM) was 98%, the % of control ([8]; at 5 µM) was 72% and the % of control ([9]; at 1 µM) was 72%. It also gave a % of control ([9]; at 5 µM) of 55%, a % of control ([10]; at 1 µM) of 86% and a % of control ([10]; at 5 µM) of 69%.
